Patent US10766865B2, “PKM2 modulators and methods for their use” (TOLERO PHARMACEUTICALS, INC., priority 2012, dated 2020)
Where two headings read alike, the source gives them in different places.

Legend:
PC3 cells = experiment: Cell Proliferation Assay, PC3; assay type: cell-based; details: Homo sapiens, PC-3; PC3, BME media lacking nonessential amino acids, 72 hours, ATPlite; read-out: Percent viability (EC50), Average
Protocol: (§1) Cells were seeded at 5000 cells per well (in 96-well plate) in BME media lacking nonessential amino acids+5% dialyzed serum. After 18 hours, DMSO or compound in 0.1% final concentration DMSO was added.
(§2) Percent viability (EC50) of A549 and PC3 cells was tested against certain exemplary compounds according to the above general procedures.

A549 cells = experiment: Cell Proliferation Assay, A549; assay type: cell-based; details: Homo sapiens; A549, BME media lacking nonessential amino acids, 72 hours, ATPlite; read-out: Percent viability (EC50), Average
Protocol: as §1, §2

PKM2 = PKM2 (Homo sapiens, UniProt P14618); experiment: PKM2 Biochemical Assay
Sequence of PKM2 (P14618 whole entry): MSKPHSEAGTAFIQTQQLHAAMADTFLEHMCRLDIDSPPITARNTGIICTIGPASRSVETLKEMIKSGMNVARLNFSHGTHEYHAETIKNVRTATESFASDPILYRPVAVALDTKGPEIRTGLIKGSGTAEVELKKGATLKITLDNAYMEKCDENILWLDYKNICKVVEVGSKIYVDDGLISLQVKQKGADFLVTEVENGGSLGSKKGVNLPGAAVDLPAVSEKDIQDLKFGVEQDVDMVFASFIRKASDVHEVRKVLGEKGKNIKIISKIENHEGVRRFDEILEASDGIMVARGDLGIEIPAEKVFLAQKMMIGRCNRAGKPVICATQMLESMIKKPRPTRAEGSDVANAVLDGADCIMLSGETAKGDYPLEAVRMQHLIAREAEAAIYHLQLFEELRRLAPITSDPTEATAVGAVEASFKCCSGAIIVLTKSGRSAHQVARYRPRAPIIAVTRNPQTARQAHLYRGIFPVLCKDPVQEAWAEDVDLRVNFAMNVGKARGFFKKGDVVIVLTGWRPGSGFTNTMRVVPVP

Capan1 = experiment: Cell line sensitivity (viability, ATPlite); assay type: cell-based; details: Homo sapiens, CAPAN-1; Capan1, Pancreatic; BME media, 72 hours; read-out: Sensitivity to Example 1 (IC50)
Protocol: (§3) Viability effect of Example 1 against a subset of lung carcinoma cell lines was determined as follows. Cells were seeded at 1500 cells per well in 384-well plates in BME media, and compound was added in 0.1% DMSO 18 hours later. Viability was determined by ATPlite assay after 72 hours. (See FIG. 4C).
(§4) Example 1 was tested against an expanded panel of cell lines according to the above procedure.

MDA-MB453 = experiment: Cell line sensitivity (viability, ATPlite); assay type: cell-based; details: Homo sapiens, MDA-MB-453; MDA-MB453, Breast; BME media, 72 hours; read-out: Sensitivity to Example 1 (IC50)
Protocol: as §3, §4

Panc-1 = experiment: Cell line sensitivity (viability, ATPlite); assay type: cell-based; details: Homo sapiens; Panc-1, Pancreatic; BME media, 72 hours; read-out: Sensitivity to Example 1 (IC50)
Protocol: as §3, §4

HCT15 = experiment: Cell line sensitivity (viability, ATPlite); assay type: cell-based; details: Homo sapiens, HCT-15; HCT15, Colon; BME media, 72 hours; read-out: Sensitivity to Example 1 (IC50)
Protocol: as §3, §4

22RV1 = experiment: Cell line sensitivity (viability, ATPlite); assay type: cell-based; details: Homo sapiens; 22RV1, Prostate; BME media, 72 hours; read-out: Sensitivity to Example 1 (IC50)
Protocol: as §3, §4

HT1080 = experiment: Cell line sensitivity (viability, ATPlite); assay type: cell-based; details: Homo sapiens, HT-1080; HT1080, Sarcoma; BME media, 72 hours; read-out: Sensitivity to Example 1 (IC50)
Protocol: as §3, §4

NCI-H647 = experiment: Cell line sensitivity (viability, ATPlite); assay type: cell-based; details: Homo sapiens; NCI-H647, Lung; BME media, 72 hours; read-out: Sensitivity to Example 1 (IC50)
Protocol: as §3, §4

SW480 = experiment: Cell line sensitivity (viability, ATPlite); assay type: cell-based; details: Homo sapiens; SW480, Colon; BME media, 72 hours; read-out: Sensitivity to Example 1 (IC50)
Protocol: as §3, §4

Ls174T = experiment: Cell line sensitivity (viability, ATPlite); assay type: cell-based; details: Homo sapiens, Colon, BME media, 72 hours, read-out: Sensitivity to Example 1 (IC50)
Protocol: as §3, §4

Gist882 = experiment: Cell line sensitivity (viability, ATPlite); assay type: cell-based; details: Homo sapiens; Gist882, GIST; BME media, 72 hours; read-out: Sensitivity to Example 1 (IC50)
Protocol: as §3, §4

FaDu = experiment: Cell line sensitivity (viability, ATPlite); assay type: cell-based; details: Homo sapiens, Head/Neck, BME media, 72 hours, read-out: Sensitivity to Example 1 (IC50)
Protocol: as §3, §4

786-O = experiment: Cell line sensitivity (viability, ATPlite); assay type: cell-based; details: Homo sapiens, 786-0, Kidney, BME media, 72 hours, read-out: Sensitivity to Example 1 (IC50)
Protocol: as §3, §4

Du145 = experiment: Cell line sensitivity (viability, ATPlite); assay type: cell-based; details: Homo sapiens, DU-145; Du145, Prostate; BME media, 72 hours; read-out: Sensitivity to Example 1 (IC50)
Protocol: as §3, §4

NCI-H1975 = experiment: Cell line sensitivity (viability, ATPlite); assay type: cell-based; details: Homo sapiens; NCI-H1975, Lung; BME media, 72 hours; read-out: Sensitivity to Example 1 (IC50)
Protocol: as §3, §4

Skov3 = experiment: Cell line sensitivity (viability, ATPlite); assay type: cell-based; details: Homo sapiens, SK-OV-3; Skov3, Ovarian; BME media, 72 hours; read-out: Sensitivity to Example 1 (IC50)
Protocol: as §3, §4

AsPC1 = experiment: Cell line sensitivity (viability, ATPlite); assay type: cell-based; details: Homo sapiens; AsPC1, Pancreatic; BME media, 72 hours; read-out: Sensitivity to Example 1 (IC50)
Protocol: as §3, §4

PC3 = experiment: Cell line sensitivity (viability, ATPlite); assay type: cell-based; details: Homo sapiens, PC-3; PC3, Prostate; BME media, 72 hours; read-out: Sensitivity to Example 1 (IC50)
Protocol: as §3, §4

LNCaP = experiment: Cell line sensitivity (viability, ATPlite); assay type: cell-based; details: Homo sapiens, Prostate, BME media, 72 hours, read-out: Sensitivity to Example 1 (IC50)
Protocol: as §3, §4

Hs766T = experiment: Cell line sensitivity (viability, ATPlite); assay type: cell-based; details: Pancreatic, BME media, 72 hours, read-out: Sensitivity to Example 1 (IC50)
Protocol: as §3, §4

A549 = experiment: Cell line sensitivity (viability, ATPlite); assay type: cell-based; details: Homo sapiens; A549, Lung; BME media, 72 hours; read-out: Sensitivity to Example 1 (IC50)
Protocol: as §3, §4

Caki-1 = experiment: Cell line sensitivity (viability, ATPlite); assay type: cell-based; details: Homo sapiens; Caki-1, Kidney; BME media, 72 hours; read-out: Sensitivity to Example 1 (IC50)
Protocol: as §3, §4

[1] = tested on: lung carcinoma cell lines; experiment: Viability against a subset of lung carcinoma cell lines; assay type: cell-based; details: certain of 6 cell lines, media lacking serine, FIG. 4C; read-out: IC50, inhibition of cell proliferation
Protocol: as §3

EC50 (PC3 cells): 156 nM
EC50 (A549 cells): 70 nM
Max. Resp. (PKM2; % maximum response in a biochemical assay as compared with Fructose 1,6-bisphosphate): 100%
Emax (PKM2; read-out: % FBP (extent of maximal activation, relative to FBP)): 104 ± 11%
AC50 (PKM2; read-out: AC50 (concentration of half-maximal PKM2 activation), Table 2, n = 6 to 10): 11 ± 4 nM
AC50 (PKM2; read-out: PKM2 AC50, 2 nM PKM2, 75 μM ADP, 15 μM PEP, Kinase Glo): 11 nM
Maximal PKM2 activity (PKM2; relative to activity in DMSO controls (normalized to 100%), FIG. 1B): approximately 600%
IC50 (MDA-MB453): > 30000 nM
IC50 (Panc-1): 14 nM
IC50 (HCT15): > 30000 nM
IC50 (22RV1): > 30000 nM
IC50 (HT1080): 50 nM
IC50 (NCI-H647): > 30000 nM
IC50 (SW480): 100 nM
IC50 (786-O): > 30000 nM
IC50 (Du145): > 30000 nM
IC50 (NCI-H1975): 90 nM
IC50 (AsPC1): > 30000 nM
IC50 (PC3): 100 nM
IC50 (LNCaP): > 30000 nM
IC50 (A549): 100 nM
IC50 [1]: ≥ 100 nM
Structure (SMILES): O=C(c1cc(C(F)(F)F)n[nH]1)N(Cc1ccc(O)cc1F)CC1CCC1 [Example 1, N-(cyclobutylmethyl)-N-(2-fluoro-4-hydroxybenzyl)-3-(trifluoromethyl)-1H-pyrazole-5-carboxamide]
IC50 (Capan1): > 30000 nM
IC50 (Ls174T): > 30000 nM
IC50 (Gist882): 800 nM
IC50 (FaDu): > 30000 nM
IC50 (Skov3): 8000 nM
IC50 (Hs766T): 300 nM
IC50 (Caki-1): 80 nM
